The supplement of paper PMC12317010
One block for each molecule: values may come before it.

Test: collision cross section in nitrogen (drift tube, single-field); higher = larger gas-phase ion size
[1] = ion type: [M+H], ion source: APCI, ion mode: Positive
[2] = ion type: [M+H], ion source: ESI, ion mode: Positive
[3] = ion type: [M+Na], ion source: ESI, ion mode: Positive
[4] = ion type: [M+], ion source: APCI, ion mode: Positive
[5] = ion type: [M-H], ion source: ESI, ion mode: Negative
[6] = ion source: ESI, ion mode: Positive, ion type: [M]+ (permanent cation)
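Further: chemical standards at 10 µM analysed by drift tube IMS-QTOF MS in about 3.95 torr nitrogen, mean of duplicate injections differing ≤1%, mass error below 10 ppm.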

SMILES: Cc1ccc(C2OC[C@@H]3OC(c4ccc(C)cc4)O[C@H]([C@H](O)CO)[C@@H]3O2)cc1 (some centres undefined) [Di-p-methylbenzylidenesorbitol]
- collision cross section in nitrogen [1]: 191.5 Å²
- collision cross section in nitrogen [2]: 193.1 Å²
- collision cross section in nitrogen [3]: 194.4 Å²

SMILES: C=CC(=O)NC(C)(C)CC(C)=O [Diacetone acrylamide]
- collision cross section in nitrogen [3]: 145.2 Å²

SMILES: C=CCOC(=O)c1ccccc1C(=O)OCC=C [Diallyl phthalate]
- collision cross section in nitrogen [3]: 159 Å²

SMILES: CCOP(=S)(OCC)Oc1cc(C)nc(C(C)C)n1 [Diazinon]
- collision cross section in nitrogen [1]: 173.5 Å²
- collision cross section in nitrogen [2]: 173.7 Å²

SMILES: c1ccc(N=NNc2ccccc2)cc1 [Diazoaminobenzene]
- collision cross section in nitrogen [2]: 147 Å²

SMILES: c1ccc2c(c1)ccc1cc3c(ccc4ccccc43)cc12 [Dibenz[a,h]anthracene]
- collision cross section in nitrogen [4]: 160 Å²

SMILES: c1ccc2c(c1)sc1ccccc12 [Dibenzothiophene]
- collision cross section in nitrogen [4]: 130.2 Å²

SMILES: CCCCOC(=O)c1ccccc1C(=O)OCCCC [Dibutyl 1,2-benzenedicarboxylate]
- collision cross section in nitrogen [3]: 182.9 Å²

SMILES: CCCCOP(=O)(CCCC)OCCCC [Dibutyl butylphosphonate]
- collision cross section in nitrogen [3]: 181.8 Å²

SMILES: CCCCOC(=O)CCCCCCCCC(=O)OCCCC [Dibutyl decanedioate]
- collision cross section in nitrogen [3]: 193.5 Å²

SMILES: Nc1c(Cl)cc([N+](=O)[O-])cc1Cl [Dichloran]
- collision cross section in nitrogen [5]: 131 Å²

SMILES: Oc1ccc(Cl)cc1Cc1cc(Cl)ccc1O [Dichlorophen]
- collision cross section in nitrogen [5]: 155.8 Å²

SMILES: CCOc1nc(F)cc2nc(S(=O)(=O)Nc3c(Cl)cccc3Cl)nn12 [Diclosulam]
- collision cross section in nitrogen [1]: 184.6 Å²
- collision cross section in nitrogen [2]: 183.5 Å²
- collision cross section in nitrogen [3]: 194 Å²
- collision cross section in nitrogen [5]: 183 Å²

SMILES: COP(=O)(OC)O/C(C)=C/C(=O)N(C)C [Dicrotophos]
- collision cross section in nitrogen [1]: 150.2 Å²
- collision cross section in nitrogen [3]: 153.2 Å²

SMILES: C1CCC(NC2CCCCC2)CC1 [Dicyclohexylamine]
- collision cross section in nitrogen [1]: 147.6 Å²
- collision cross section in nitrogen [2]: 146.9 Å²

SMILES: CCCCCCCCCC[N+](C)(C)CCCCCCCCCC [Didecyldimethylammonium chloride]
- collision cross section in nitrogen (ion source: APCI, ion mode: Positive, ion type: [M]+ (permanent cation)): 208.2 Å²
- collision cross section in nitrogen [6]: 209.1 Å²

SMILES: CCOc1ccc(NC(=O)OC(C)C)cc1OCC [Diethofencarb]
- collision cross section in nitrogen [3]: 177.1 Å²
- collision cross section in nitrogen [5]: 171.9 Å²

SMILES: CCOP(=O)(CN(CCO)CCO)OCC [Diethyl (N,N-bis(2-hydroxyethyl)amino)methanephosphonate]
- collision cross section in nitrogen [1]: 153.5 Å²
- collision cross section in nitrogen [2]: 153.9 Å²
- collision cross section in nitrogen [3]: 156.5 Å²
- collision cross section in nitrogen [5]: 157.5 Å²

SMILES: CCOC=C(C(=O)OCC)C(=O)OCC [Diethyl ethoxymethylenemalonate]
- collision cross section in nitrogen [3]: 146.8 Å²

SMILES: CCOP(=O)(O)OCC [Diethyl hydrogen phosphate]
- collision cross section in nitrogen [5]: 129.2 Å²

Further lines, results first:

- collision cross section in nitrogen [2]: 175.5 Å²
- collision cross section in nitrogen [3]: 179.4 Å²
SMILES: CC(=O)Nc1c(I)c(NC(C)=O)c(I)c(C(=O)O)c1I [Diatrizoate sodium]

- collision cross section in nitrogen [2]: 179.4 Å²
- collision cross section in nitrogen [3]: 183.6 Å²
SMILES: CC(=O)Nc1c(I)c(NC(C)=O)c(I)c(C(=O)O)c1I [Diatrizoic acid]

- collision cross section in nitrogen [1]: 162.8 Å²
SMILES: O=C1C(N(CO)C(=O)NCO)N(CO)C(=O)N1CO (centres undefined) [Diazolidinyl urea]

- collision cross section in nitrogen [1]: 150.8 Å²
- collision cross section in nitrogen [2]: 149.6 Å²
SMILES: c1ccc(CNCc2ccccc2)cc1 [Dibenzylamine]

- collision cross section in nitrogen [3]: 180.8 Å²
SMILES: CCCCOC(=O)CCCCC(=O)OCCCC [Dibutyl adipate]

- collision cross section in nitrogen [3]: 191.2 Å²
- collision cross section in nitrogen [5]: 176 Å²
SMILES: CCCCOC(=O)CCCCCCCC(=O)OCCCC [Dibutyl azelate]

- collision cross section in nitrogen [5]: 188.4 Å²
SMILES: O=C(CC(C(=O)OC1CCCCC1)S(=O)(=O)O)OC1CCCCC1 (centres undefined) [Dicyclohexyl sodium sulfosuccinate]

- collision cross section in nitrogen [5]: 153.5 Å²
SMILES: O=c1[nH]cnc2c1ncn2[C@H]1CC[C@@H](CO)O1 [Didanosine]

- collision cross section in nitrogen [6]: 225.6 Å²
SMILES: CCCCCCCCCCCC[N+](C)(C)CCCCCCCCCCCC [Didodecyldimethylammonium bromide]

- collision cross section in nitrogen [3]: 171.5 Å²
SMILES: CCOC(=O)CCCCCCCCC(=O)OCC [Diethyl decanedioate]

- collision cross section in nitrogen [3]: 180.8 Å²
SMILES: O=C(OCCOCCOC(=O)c1ccccc1)c1ccccc1 [Diethylene glycol dibenzoate]

- collision cross section in nitrogen [3]: 150.1 Å²
SMILES: CCCCOCCOCCOC(C)=O [Diethylene glycol monobutyl ether acetate]
